Measured values published in US8080567B2, “EP2 receptor agonists” (Asterand UK Limited, priority 2005, dated 2011).

Experiments:
human EP2 receptor = molecular target: T1, human EP2 receptor (Homo sapiens, UniProt P43116); assay: Binding ability to human EP receptors, [3H]PGE2 displacement, EP2; settings: membranes expressing human EP2 receptor; [3H]PGE2 3 nM; Cheng-Prusoff; read-out: pKi (M) EP2 (converted)
T1 construct: expressed in transfected cells; HEK-293 is named only for the cAMP assay
Description: (§1) Membranes were prepared from cells stably transfected with human EP receptor cDNA. In brief, cells were cultured to confluency, scraped from culture flasks, and centrifuged (800 g, 8 minutes, 4° C.). Cells were twice washed in ice cold homogenisation buffer containing 10 mM Tris-HCl, 1 mM EDTA.2Na, 250 mM sucrose, 1 mM PMSF, 0.3 mM indomethacin, pH 7.4, homogenised and re-centrifuged as before. The supernatant was stored on ice and pellets re-homogenised and re-spun. Supernatants were pooled and centrifuged at 40000 g, 10 minutes, 4° C. Resultant membrane pellets were stored at −80° C. until use.
(§2) For assay, membranes expressing human EP4, EP3, EP2 or EP1 receptors were incubated in Millipore (MHVBN45) plates containing assay buffer, radiolabelled [^3H]PGE2 and 0.1 to 10 000 nM concentrations of compounds. Incubations were performed at suitable temperatures and for suitable times to allow equilibrium to be reached. Non-specific binding was determined in the presence of 10 uM PGE2. Bound and free radiolabel was separated by vacuum manifold filtration using appropriate wash buffers, and bound radiolabel was determined by scintillation counting. Constituents of each of the buffers are included in table 1 below.
(§3) The affinity or pKi of each compound for each receptor was calculated from the concentration causing 50% radioligand displacement (IC50) using the Cheng-Prusoff equation: […]
(§4) This approach follows that set out in Kenakin, T. P., Pharmacologic analysis of drug receptor interaction. Raven Press, New York, 2nd edition.

human EP4 receptor = molecular target: T2, human EP4 receptor (Homo sapiens, UniProt P35408); assay: Binding ability to human EP receptors, [3H]PGE2 displacement, EP4; settings: membranes expressing human EP4 receptor; [3H]PGE2 1 nM; Cheng-Prusoff; read-out: pKi (M) EP4 (converted)
T2 construct: expressed in transfected cells; HEK-293 is named only for the cAMP assay
Description: as §1, §2, §3, §4

T2 sequence (P35408 whole entry): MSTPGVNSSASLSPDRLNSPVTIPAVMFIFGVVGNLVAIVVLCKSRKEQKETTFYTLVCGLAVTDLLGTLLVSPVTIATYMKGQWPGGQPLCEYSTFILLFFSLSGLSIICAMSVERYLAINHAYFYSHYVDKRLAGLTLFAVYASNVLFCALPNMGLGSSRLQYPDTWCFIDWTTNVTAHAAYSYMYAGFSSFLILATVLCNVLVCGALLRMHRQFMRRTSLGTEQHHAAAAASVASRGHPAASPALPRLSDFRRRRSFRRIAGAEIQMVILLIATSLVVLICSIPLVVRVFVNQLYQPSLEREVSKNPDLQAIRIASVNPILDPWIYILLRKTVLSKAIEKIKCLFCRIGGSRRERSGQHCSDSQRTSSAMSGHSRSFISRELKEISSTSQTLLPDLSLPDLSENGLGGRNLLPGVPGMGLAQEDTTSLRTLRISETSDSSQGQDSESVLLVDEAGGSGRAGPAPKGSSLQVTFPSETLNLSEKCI
T1 sequence (P43116 whole entry): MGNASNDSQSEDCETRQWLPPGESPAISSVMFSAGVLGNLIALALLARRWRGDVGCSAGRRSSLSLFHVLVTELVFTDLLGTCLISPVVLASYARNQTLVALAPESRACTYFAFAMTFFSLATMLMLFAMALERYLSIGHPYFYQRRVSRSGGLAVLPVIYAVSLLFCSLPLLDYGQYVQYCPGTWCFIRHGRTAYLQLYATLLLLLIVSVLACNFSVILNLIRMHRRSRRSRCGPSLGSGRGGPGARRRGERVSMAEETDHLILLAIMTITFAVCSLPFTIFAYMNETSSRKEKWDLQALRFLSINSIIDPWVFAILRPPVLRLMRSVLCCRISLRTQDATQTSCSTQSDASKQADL

SMILES | Ki (human EP2 receptor) | Ki (human EP4 receptor)
O=C(O)C=Cc1cccc(NC(=O)c2ccc(Oc3ccccc3)o2)c1 [Compound 5, 3-{3-[(5-Phenoxy-furan-2-carbonyl)-amino]-phenyl}-acrylic acid] | < 1e-07 M | > 1e-06 M
O=C(O)C=Cc1cccc(NC(=O)c2ccc(C(=O)c3ccccc3)o2)c1 [Compound 11, 3-{3-[(5-Benzoyl-furan-2-carbonyl)-amino]-phenyl}-acrylic acid] | < 1e-07 M | > 1e-06 M
O=C(O)C=Cc1cccc(Sc2cccc(-c3ccccc3)n2)c1 [Compound 16, 3-[3-(6-Phenyl-pyridin-2-ylsulfanyl)-phenyl]-acrylic acid] | < 1e-06 M | > 1e-06 M
O=C(O)C=Cc1cccc(NC(=O)c2ccc3oc4ccccc4c3c2)c1 [Compound 20, 3-{3-[(Dibenzofuran-2-carbonyl)-amino]-phenyl}-acrylic acid] | < 1e-07 M | > 1e-06 M
O=C(O)C=Cc1cccc(CC(O)c2ccc(-c3ccccc3)o2)c1 (stereo not shown) [Compound 28, 3-{3-[2-Hydroxy-2-(5-phenyl-furan-2-yl)-ethyl]-phenyl}-acrylic acid] | < 1e-06 M | > 1e-06 M

Second part, the compound after the results:

Ki (human EP2 receptor) | Ki (human EP4 receptor) | SMILES
< 1e-06 M | > 1e-06 M | O=C(O)C=Cc1cccc(C=Cc2ccc(-c3ccccc3)o2)c1 [Compound 29, 3-{3-[2-(5-Phenyl-furan-2-yl)-vinyl]-phenyl}-acrylic acid]
< 1e-06 M | > 1e-06 M | O=C(O)C=Cc1cccc(-c2nc3cc(-c4ccccc4)ccc3o2)c1 [Compound 34, 3-[3-(5-Phenyl-benzoxazol-2-yl)-phenyl]-acrylic acid]
< 1e-06 M | > 1e-06 M | O=C(O)C=Cc1cccc(NC(=O)c2ccc(-c3ccccc3)o2)n1 [Compound 40, 3-{6-[(5-Phenyl-furan-2-carbonyl)-amino]-pyridin-2-yl}-acrylic acid]
< 1e-07 M | > 1e-06 M | O=C(O)C=Cc1ccc(F)c(NC(=O)c2ccc(-c3ccccc3)o2)c1 [Compound 45, 3-{4-Fluoro-3-[(5-phenyl-furan-2-carbonyl)-amino]-phenyl}-acrylic acid]
< 1e-08 M | > 1e-07 M | O=C(O)C=Cc1ccc(Cl)c(NC(=O)c2cc(-c3ccccc3)ccc2F)c1 [Compound 52, 3-{4-Chloro-3-[(4-fluoro-biphenyl-3-carbonyl)-amino]-phenyl}-acrylic acid]
< 1e-06 M | > 1e-06 M | N=C(Nc1cccc(C=CC(=O)O)c1)c1cc(-c2ccccc2)ccc1F [Compound 58, 3-{3-[(4-Fluoro-biphenyl-3-carboximidoyl)-amino]-phenyl}-acrylic acid]
